Source: US4920103A, “Modifications of mycinose and 3-O-demethylmycinose in tylosin-type macrolides” (Eli Lilly and Company, priority 1986, dated 1990)
Converted amounts (≈) assume the structure as drawn. Where two headings read alike, the source gives them in different places.

Key:
[1] = test system: Staphylococcus aureus X1.1; assay: MIC, standard agar-dilution assay, S. aureus X1.1; format: cell-based
Description: (§1) The MIC's in Table II were determined by standard agar-dilution assays. The MIC's in Table III were obtained using conventional broth-dilution microtiter tests.

[2] = test system: Staphylococcus aureus V41; assay: MIC, standard agar-dilution assay, S. aureus V41; format: cell-based; conditions: Staphylococcus aureus, V41
Description: as §1

[3] = test system: Staphylococcus aureus X400; assay: MIC, standard agar-dilution assay, S. aureus X400; format: cell-based
Description: as §1

[4] = test system: Staphylococcus aureus S13E; assay: MIC, standard agar-dilution assay, S. aureus S13E; format: cell-based
Description: as §1

[5] = test system: Staphylococcus epidermidis EPI1; assay: MIC, standard agar-dilution assay, S. epidermidis EPI1; format: cell-based
Description: as §1

[6] = test system: Staphylococcus epidermidis 222; assay: MIC, standard agar-dilution assay, S. epidermidis 222; format: cell-based
Description: as §1

[7] = test system: Streptococcus pyogenes C203; assay: MIC, standard agar-dilution assay, S. pyogenes C203; format: cell-based; conditions: Streptococcus pyogenes, C203
Description: as §1

[8] = test system: Streptococcus pneumoniae Park I; assay: MIC, standard agar-dilution assay, S. pneumoniae Park I; format: cell-based; conditions: Streptococcus pneumoniae
Description: as §1

[9] = test system: Streptococcus Group D X66; assay: MIC, standard agar-dilution assay, Streptococcus Group D X66; format: cell-based
Description: as §1

[10] = test system: Streptococcus Group D 2041; assay: MIC, standard agar-dilution assay, Streptococcus Group D 2041; format: cell-based; conditions: GROUPD2041
Description: as §1

[11] = test system: Haemophilus influenzae C.L.; assay: MIC, standard agar-dilution assay, H. influenzae C.L.; format: cell-based
Description: as §1

[12] = test system: Haemophilus influenzae 76; assay: MIC, standard agar-dilution assay, H. influenzae 76; format: cell-based
Description: as §1

Escherichia coli EC14 = assay: MIC, standard agar-dilution assay, E. coli EC14; format: cell-based; conditions: agar-dilution, read-out: MIC
Description: as §1

[13] = test system: Klebsiella pneumoniae X68; assay: MIC, standard agar-dilution assay, K. pneumoniae X68; format: cell-based; conditions: agar-dilution, read-out: MIC
Description: as §1

[14] = test system: Pseudomonas aeruginosa X239; assay: MIC, standard agar-dilution assay, P. aeruginosa X239; format: cell-based; conditions: agar-dilution, read-out: MIC
Description: as §1

[15] = test system: Streptococcus pyogenes C203; assay: Protection of mice experimentally infected with Streptococcus pyogenes C203; format: in vivo; conditions: Streptococcus pyogenes, doses given 1 and 4 hours postinfection, read-out: ED50
Description: The formula 1 compounds have shown in vivo antimicrobial activity against experimentally-induced infections in laboratory animals. When two doses of test compound were administered to mice experimentally infected with Streptococcus pyogenes C203, the activity observed was measured as an ED50 value [effective dose in mg/kg to protect 50% of the test animals: see Warren Wick, et al., J. Bacteriol. 81, 233-235 (1961)].
^a mg/kg × 2; doses given 1 and 4 hours postinfection

Staphylococcus aureus = assay: MIC, broth-dilution microtiter test, S. aureus; format: cell-based
Description: as §1

Streptococcus sp. 19F = assay: MIC, broth-dilution microtiter test, Streptococcus sp. 19F; format: cell-based; conditions: Streptococcus, SP.19F
Description: as §1

[16] = test system: Pasteurella multocida 17E; assay: MIC, broth-dilution microtiter test, P. multocida 17E; format: cell-based; conditions: Pasteurella multocida, 17E
Description: as §1

[17] = test system: Pasteurella multocida 60A; assay: MIC, broth-dilution microtiter test, P. multocida 60A; format: cell-based; conditions: broth-dilution microtiter, avian isolate, read-out: MIC
Description: as §1

[18] = test system: Pasteurella multocida 40G; assay: MIC, broth-dilution microtiter test, P. multocida 40G; format: cell-based
Description: as §1

[19] = test system: Pasteurella multocida 22A; assay: MIC, broth-dilution microtiter test, P. multocida 22A; format: cell-based; conditions: broth-dilution microtiter, read-out: MIC
Description: as §1

[20] = test system: Pasteurella multocida 68C; assay: MIC, broth-dilution microtiter test, P. multocida 68C; format: cell-based
Description: as §1

[21] = test system: Pasteurella hemolytica 23C; assay: MIC, broth-dilution microtiter test, P. hemolytica 23C; format: cell-based; conditions: broth-dilution microtiter, read-out: MIC
Description: as §1

[22] = test system: Pasteurella hemolytica 41D; assay: MIC, broth-dilution microtiter test, P. hemolytica 41D; format: cell-based; conditions: broth-dilution microtiter, read-out: MIC
Description: as §1

[23] = test system: Pasteurella hemolytica 22C; assay: MIC, broth-dilution microtiter test, P. hemolytica 22C; format: cell-based; conditions: broth-dilution microtiter, read-out: MIC
Description: as §1

[24] = test system: Bordetella bronchiseptica; assay: MIC, broth-dilution microtiter test, B. bronchiseptica; format: cell-based; conditions: broth-dilution microtiter, read-out: MIC
Description: as §1

[25] = test system: Mycoplasma gallisepticum 29C; assay: MIC, broth-dilution microtiter test, M. gallisepticum 29C; format: cell-based; conditions: Mycoplasmoides gallisepticum
Description: as §1

[26] = test system: Mycoplasma gallisepticum 15E; assay: MIC, broth-dilution microtiter test, M. gallisepticum 15E; format: cell-based; conditions: Mycoplasmoides gallisepticum, broth-dilution microtiter, read-out: MIC
Description: as §1

[27] = test system: Mycoplasma gallisepticum 36H; assay: MIC, broth-dilution microtiter test, M. gallisepticum 36H; format: cell-based; conditions: Mycoplasmoides gallisepticum
Description: as §1

[28] = test system: Mycoplasma hyopneumoniae S5972; assay: MIC, broth-dilution microtiter test, M. hyopneumoniae S5972; format: cell-based; conditions: Mesomycoplasma hyopneumoniae, S5972; broth-dilution microtiter; read-out: MIC
Description: as §1

[29] = agar-dilution, ampicillin-sensitive strain, read-out: MIC
[30] = agar-dilution, ampicillin-resistant strain, read-out: MIC

| Structure (SMILES) | MIC [1] [µg/mL] | MIC [2] [µg/mL] | MIC [3] [µg/mL] | MIC [4] [µg/mL] | MIC [5] [µg/mL] | MIC [6] [µg/mL] | MIC [7] [µg/mL] | MIC [8] [µg/mL] | MIC [9] [µg/mL] | MIC [10] [µg/mL] | MIC (Escherichia coli EC14) [µg/mL] | MIC [13] [µg/mL] | MIC [14] [µg/mL] | ED50 ([15]; C203, oral) [mg/kg] | ED50 ([15]; C203, sc, subcutaneous) [mg/kg] | MIC [11, 29] [µg/mL] | MIC [12, 30] [µg/mL] | further results |
| --- | --- | --- | --- | --- | --- | --- | --- | --- | --- | --- | --- | --- | --- | --- | --- | --- | --- | --- |
| CCC1OC(=O)CC(O)C(C)C(OC2OC(C)C(O)C(N(C)C)C2O)C(CCOc2ccccc2)CC(C)C(=O)C=CC(C)=CC1COC1OC(C)C(=O)C(OC)C1OC (centres unmarked) [Compound 2, 4"-Oxo-20-DH-20-O-phenyl-desmycosin] | 0.5 (≈ 0.59 µM) | 0.5 (≈ 0.59 µM) | 0.5 (≈ 0.59 µM) | 0.5 (≈ 0.59 µM) | 1 (≈ 1.18 µM) | 0.25 (≈ 0.295 µM) | 2 (≈ 2.36 µM) | 4 (≈ 4.72 µM) | 4 (≈ 4.72 µM) | 8 (≈ 9.43 µM) | > 128 | > 128 | > 128 | 85.6 | > 10 |  |  | MIC [11]: 64 µg/mL (≈ 75.5 µM); MIC [12]: 64 µg/mL (≈ 75.5 µM) |
| CCC1OC(=O)CC(O)C(C)C(OC2OC(C)C(O)C(N(C)C)C2O)C(CCOc2ccccc2)CC(C)C(=O)C=CC(C)=CC1COC1OC(C)C(=NO)C(OC)C1OC (centres unmarked) [Compound 4, 4"-O-Hydroxyimino-20-DH-20-O-phenyl-desmycosin] | 0.5 (≈ 0.579 µM) | 1 (≈ 1.16 µM) | 1 (≈ 1.16 µM) | 1 (≈ 1.16 µM) | 1 (≈ 1.16 µM) | 0.5 (≈ 0.579 µM) | 2 (≈ 2.32 µM) | 2 (≈ 2.32 µM) | 2 (≈ 2.32 µM) | 4 (≈ 4.63 µM) | > 128 | > 128 | > 128 | 39.6 | > 10 | > 128 | > 128 | MIC (Staphylococcus aureus): 1.56 µg/mL (≈ 1.81 µM); MIC (Streptococcus sp. 19F): 0.78 µg/mL (≈ 0.904 µM); MIC [16]: 50 µg/mL (≈ 57.9 µM); MIC [17]: > 50 µg/mL; MIC [18]: 50 µg/mL (≈ 57.9 µM); MIC [19]: > 50 µg/mL; MIC [20]: 50 µg/mL (≈ 57.9 µM); MIC [21]: > 50 µg/mL; MIC [22]: > 50 µg/mL; MIC [23]: > 50 µg/mL; MIC [24]: > 50 µg/mL; MIC [25]: 1.56 µg/mL (≈ 1.81 µM); MIC [26]: 25 µg/mL (≈ 29 µM); MIC [27]: 50 µg/mL (≈ 57.9 µM); MIC [28]: > 50 µg/mL |
| CCC1OC(=O)CC(O)C(C)C(OC2OC(C)C(O)C(N(C)C)C2O)C(CCOc2ccccc2)CC(C)C(=O)C=CC(C)=CC1COC1OC(C)C(OS(C)(=O)=O)C(OC)C1OC (centres unmarked) [Compound 15, 4"-O-Methanesulfonyl-20-DH-20-O-Phenyl-desmycosin] | 2 (≈ 2.15 µM) | 2 (≈ 2.15 µM) | 2 (≈ 2.15 µM) | 2 (≈ 2.15 µM) | 2 (≈ 2.15 µM) | 1 (≈ 1.08 µM) | 4 (≈ 4.31 µM) |  | 16 (≈ 17.2 µM) | 32 (≈ 34.5 µM) | > 128 | > 128 | > 128 | 29.3 | > 10 | 128 (≈ 138 µM) | 128 (≈ 138 µM) | MIC ([8]; agar-dilution, read-out: MIC): 8 µg/mL (≈ 8.62 µM) |
| CCC1OC(=O)CC(O)C(C)C(OC2OC(C)C(O)C(N(C)C)C2O)C(CCOc2ccccc2)CC(C)C(=O)C=CC(C)=CC1COC1OC(C)C(N=[N+]=[N-])C(OC)C1OC (centres unmarked) [Compound 25, 4"-Azido-4"-deoxy-20-DH-20-O-phenyl-desmycosin] | 4 (≈ 4.57 µM) | 4 (≈ 4.57 µM) | 4 (≈ 4.57 µM) | 4 (≈ 4.57 µM) | 4 (≈ 4.57 µM) | 4 (≈ 4.57 µM) | 8 (≈ 9.14 µM) | 8 (≈ 9.14 µM) |  | 64 (≈ 73.1 µM) | > 128 | > 128 | > 128 | 64 | > 10 | > 128 | > 128 | MIC ([9]; agar-dilution, read-out: MIC): 16 µg/mL (≈ 18.3 µM) |
| CCC1OC(=O)CC(O)C(C)C(OC2OC(C)C(O)C(N(C)C)C2O)C(CCOc2ccccc2)CC(C)C(=O)C=CC(C)=CC1COC1OC(C)C(N2CCCCC2)C(OC)C1OC (centres unmarked) [Compound 42, 4"-Deoxy-20-DH-20-O-phenyl-4"-(piperidin-1-yl)desmycosin] | 4 (≈ 4.36 µM) | 4 (≈ 4.36 µM) | 4 (≈ 4.36 µM) | 2 (≈ 2.18 µM) | 4 (≈ 4.36 µM) | 2 (≈ 2.18 µM) | 2 (≈ 2.18 µM) | 2 (≈ 2.18 µM) | 16 (≈ 17.4 µM) | 32 (≈ 34.9 µM) | > 128 | > 128 | > 128 | > 100 | > 10 | > 128 | > 128 |  |
| CCC1OC(=O)CC(O)C(C)C(OC2OC(C)C(O)C(N(C)C)C2O)C(CCOc2ccccc2)CC(C)C(=O)C=CC(C)=CC1COC1OC(C)C(NCc2ccccc2)C(OC)C1OC (centres unmarked) [Compound 47, 4"-Benzylamino-4"-deoxy-20-DH-20-O-phenyl-desmycosin] | 2 (≈ 2.13 µM) | 2 (≈ 2.13 µM) | 2 (≈ 2.13 µM) | 2 (≈ 2.13 µM) | 2 (≈ 2.13 µM) | 2 (≈ 2.13 µM) | 2 (≈ 2.13 µM) | 2 (≈ 2.13 µM) | 8 (≈ 8.52 µM) | 32 (≈ 34.1 µM) | > 128 | > 128 | > 128 | 70.7 | > 10 | 128 (≈ 136 µM) | 128 (≈ 136 µM) |  |
| CCC1OC(=O)CC(O)C(C)C(OC2OC(C)C(O)C(N(C)C)C2O)C(CCOc2ccccc2)CC(C)C(=O)C=CC(C)=CC1COC1OC(C)CC(=O)C1OC (centres unmarked) [Compound 52, 4"-Deoxy-3"-oxo-20-DH-20-O-phenyl-lactenocin] | 0.5 (≈ 0.611 µM) | 0.5 (≈ 0.611 µM) | 0.5 (≈ 0.611 µM) | 0.5 (≈ 0.611 µM) | 0.5 (≈ 0.611 µM) | 0.25 (≈ 0.306 µM) | 1 (≈ 1.22 µM) | 2 (≈ 2.44 µM) | 2 (≈ 2.44 µM) | 2 (≈ 2.44 µM) | > 128 | > 128 | > 128 | 79.4 | 10 |  |  | MIC [11]: 64 µg/mL (≈ 78.2 µM); MIC [12]: 64 µg/mL (≈ 78.2 µM) |
